Experimental data reported in US5550243A, “B preparation of 2- and 3- azido derivates of 1,5-iminosugars” (priority 1995, dated 1996).
Where two headings read alike, the source gives them in different places.

Legend:
visna virus = assay: microbe, parasite or virus in culture; assay type: cell-based; details: for inhibition at 100 µM / inhibition at 1000 µM: Visna-maedi virus
α-glucosidase = assay: Inhibition of α-glucosidase in conventional enzyme assay; assay type: biochemical; details: 1 mM concentration
β-glucosidase = assay: Inhibition of β-glucosidase in conventional enzyme assay; assay type: biochemical; details: 1 mM concentration
[1] = read-out: Visna % Plaque Redn (Conc)
[2] = read-out: Visna % Plague Redn (Conc)

Row | Compound | inhibition at 100 µM (visna virus; [1]) | inhibition at 100 µM (visna virus; [2]) | inhibition at 1000 µM (visna virus; [1]) | other results
1 | [N-]=[N+]=N[C@H]1CN[C@H](CO)[C@@H](O)[C@@H]1O [Compound 12, 2-azido-1,2,5-trideoxy-1,5-imino-D-glucitol] | 76% |  |  | 
2 | CCCCN1CC(N=[N+]=[N-])C(O)C(O)C1CO [Compound 13, 2-azido-1,5-(butylimino)-1,2,5-trideoxy-D-glucitol] | 78% | 78% |  | 
3 | CCC(CC)CN1CC(N=[N+]=[N-])C(O)C(O)C1CO [Compound 14, 2-azido-1,5-{(2-ethylbutyl)imino}-1,2,5-trideoxy-D-glucitol] | 67% |  |  | 
4 | [N-]=[N+]=NC1CN(CCCC(F)(F)F)C(CO)C(O)C1O [Compound 15, 2-azido-1,5-{(4,4,4-trifluorobutyl)imino}-1,2,5-trideoxy-D-glucitol] |  |  | 41% | 
5 | N[C@H]1CN[C@H](CO)[C@@H](O)[C@@H]1O [Compound 20, 2-amino-1,2,5-trideoxy-1,5-imino-D-glucitol] | 91% |  |  | 
6 | CCCCN1CC(N)C(O)C(O)C1CO [Compound 21, 2-amino-1,5-(butylimino)-1,2,5-trideoxy-D-glucitol] | 66% | 66% |  | 
7 | CCC(CC)CN1CC(N)C(O)C(O)C1CO [Compound 22, 2-amino-1,5-{(2-ethylbutyl)imino}-1,2,5-trideoxy-D-glucitol] |  |  |  | Visna % Plaque Redn (Conc), only a concentration bound printed (visna virus; Table 3, no % printed): > 1 mm
8 | NC1CN(CCCC(F)(F)F)C(CO)C(O)C1O [Compound 23, 2-amino-1,5-{(4,4,4-trifluorobutyl)imino}-1,2,5-trideoxy-D-glucitol] |  |  | 9% | 
9 | CCCCN1CC(N(C)C)C(O)C(O)C1CO [Compound 28, 1,5-(butylimino)-1,2,5-trideoxy-2-(dimethylamino)-D-glucitol] |  | 41% |  | 
10 | CCCCN1CC(NC)C(O)C(O)C1CO [Compound 29, 1,5-(butylimino)-1,2,5-trideoxy-2-(methylamino)-D-glucitol] |  | 25% |  | 
11 | CCCCN1CC(NC(=O)CCC)C(O)C(O)C1CO [Compound 30, 1,5-(butylimino)-1,2,5-trideoxy-2-{(1-oxobutyl)amino}-D-glucitol] |  | 20% |  | 
12 | CCCCN1CC(NC(=O)CCC)C(OC(=O)CCC)C(OC(=O)CCC)C1COC(=O)CCC [Compound 31, 1,5-(butylimino)-1,2,5-trideoxy-2-{(1-oxobutyl)amino}-D-glucitol, tributanoate] |  | 29% |  | 
13 | N[C@H]1[C@H](O)[C@@H](CO)NC[C@@H]1O [Compound 37, 3-amino-1,3,5-trideoxy-1,5-imino-D-glucitol] |  |  | 30% | 
14 | CCCCN1CC(N)C(N)C(O)C1CO [Compound 46, 2,3-diamino-1,5-(butylimino)-1,2,3,5-tetradeoxy-D-glucitol] |  |  | 3% | 
15 | CN(C)CCN[C@@H]1[C@H](O)[C@@H](CO)NC[C@H]1O [Compound 50, 3-[{2-(dimethylamino)ethyl}amino]-1,3,5-trideoxy-1,5-imino-D-altritol] |  |  | 38% | inhibition of α-glucosidase (α-glucosidase): 22%; inhibition of β-glucosidase (β-glucosidase): 22%
